Test results taken from US12030879B2, “Sulfonyl acetamides as NLRP3 inhibitors” (Inflazome Limited, priority 2018, dated 2024).

The compounds below were run against T1, NLRP3 (Homo sapiens, UniProt Q96P20) (assay: THP-1 cells pyroptosis assay). Details: LPS 1 μg/ml, compound 3 hrs, nigericin 5 μM 1 hr, resazurin readout.
T1 construct: Seed THP-1 cells (25,000 cells/well) containing 1.0 μg/ml LPS in 40 μl of RPMI medium; host or cells: THP-1 cells
Type: cell-based
In short: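 LPS-primed (1 μg/ml) THP-1 cells in serum-free RPMI were treated 3 h with compound (8-point half-log, top 10 μM; 0.1% DMSO), then with 5 μM nigericin for 1 h at 37°C. Viability was read by 100 μM resazurin (ex 560/em 590 nm) after 1–2 h. IC50 came from 4-parameter nonlinear regression.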

T1 sequence (Q96P20 whole entry): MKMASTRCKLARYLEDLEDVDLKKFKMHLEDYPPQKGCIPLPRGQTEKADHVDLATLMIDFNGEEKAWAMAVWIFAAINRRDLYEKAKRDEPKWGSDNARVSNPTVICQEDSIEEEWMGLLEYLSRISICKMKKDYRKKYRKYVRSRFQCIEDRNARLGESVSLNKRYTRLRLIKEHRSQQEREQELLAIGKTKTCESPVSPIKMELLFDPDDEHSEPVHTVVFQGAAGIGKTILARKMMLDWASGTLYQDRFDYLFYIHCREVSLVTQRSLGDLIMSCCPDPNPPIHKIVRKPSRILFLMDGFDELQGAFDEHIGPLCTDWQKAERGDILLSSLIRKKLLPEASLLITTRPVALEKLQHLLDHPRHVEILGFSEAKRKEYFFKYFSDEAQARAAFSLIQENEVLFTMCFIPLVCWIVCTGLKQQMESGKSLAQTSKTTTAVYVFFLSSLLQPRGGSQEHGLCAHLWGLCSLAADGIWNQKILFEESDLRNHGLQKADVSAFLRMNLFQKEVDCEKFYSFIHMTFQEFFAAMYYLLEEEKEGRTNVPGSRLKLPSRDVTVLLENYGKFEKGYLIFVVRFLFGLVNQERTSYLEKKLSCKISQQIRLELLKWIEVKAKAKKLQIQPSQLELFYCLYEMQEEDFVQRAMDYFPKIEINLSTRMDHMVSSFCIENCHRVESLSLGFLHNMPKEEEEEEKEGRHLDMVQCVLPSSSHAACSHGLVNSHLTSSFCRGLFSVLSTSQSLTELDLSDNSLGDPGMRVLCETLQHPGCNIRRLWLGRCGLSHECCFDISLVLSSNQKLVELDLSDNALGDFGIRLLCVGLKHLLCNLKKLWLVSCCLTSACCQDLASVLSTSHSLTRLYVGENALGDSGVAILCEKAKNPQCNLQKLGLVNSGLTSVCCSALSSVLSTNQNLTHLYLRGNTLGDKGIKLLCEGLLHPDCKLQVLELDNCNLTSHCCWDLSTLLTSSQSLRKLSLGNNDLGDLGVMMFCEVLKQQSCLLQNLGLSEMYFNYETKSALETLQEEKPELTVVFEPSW

Row | IC50 [nM] | Compound
1 | ≤ 1000 | COc1cc(-c2cc(F)cc(C(C)C)c2CC(=O)NS(=O)(=O)c2ccc3c(c2)CCCO3)ccn1 [Example 118]
2 | ≤ 1000 | COc1cccc(S(=O)(=O)NC(=O)Cc2c(-c3ccnc(OC)c3)cc(F)cc2C(C)C)c1 [Example 119]
3 | ≤ 1000 | COc1cc(-c2cc(F)cc(C(C)C)c2CC(=O)NS(=O)(=O)c2ccc(C)cc2F)ccn1 [Example 120]
4 | ≤ 500 | COc1cc(-c2cc(F)cc(C(C)C)c2CC(=O)NS(=O)(=O)c2cc(C)c(C)s2)ccn1 [Example 121]
5 | ≤ 500 | COc1cc(-c2cc(F)cc(C(C)C)c2CC(=O)NS(=O)(=O)c2ccc(C)c(C)c2)ccn1 [Example 122]
6 | ≤ 500 | COc1cc(-c2cc(F)cc(C(C)C)c2CC(=O)NS(=O)(=O)c2ccc3c(c2)CCC3)ccn1 [Example 123]
7 | ≤ 500 | COc1cc(-c2cc(F)cc(C(C)C)c2CC(=O)NS(=O)(=O)c2ccc3c(c2)COC3)ccn1 [Example 124]
8 | ≤ 500 | COc1cc(-c2cc(F)cc(C(C)C)c2CC(=O)NS(=O)(=O)c2ccc(C)c(F)c2)ccn1 [Example 125]
9 | ≤ 500 | COc1cc(-c2cc(F)cc(C(C)C)c2CC(=O)NS(=O)(=O)c2ccc3ccccc3c2)ccn1 [Example 126]
10 | ≤ 5000 | COc1cc(-c2cc(F)cc(C(C)C)c2CC(=O)NS(=O)(=O)c2ccc(-c3cnco3)s2)ccn1 [Example 127]
11 | ≤ 1000 | COc1cc(-c2cc(F)cc(C(C)C)c2CC(=O)NS(=O)(=O)c2cc(Br)ccc2C)ccn1 [Example 128]
12 | ≤ 1000 | COc1cc(-c2cc(F)cc(C(C)C)c2CC(=O)NS(=O)(=O)c2ccc(Br)cc2C)ccn1 [Example 129]
13 | ≤ 5000 | COc1cc(-c2cc(F)cc(C(C)C)c2CC(=O)NS(=O)(=O)c2ccc(CCNC(C)=O)cc2)ccn1 [Example 130]
14 | ≤ 5000 | COc1cc(-c2cc(F)cc(C(C)C)c2CC(=O)NS(=O)(=O)c2nn(C)/c(=N\C(C)=O)s2)ccn1 [Example 131]
15 | ≤ 5000 | COc1cc(-c2cc(F)cc(C(C)C)c2CC(=O)NS(=O)(=O)c2ccc(/C(C)=N\O)cc2)ccn1 [Example 132]
16 | ≤ 5000 | COc1cc(-c2cc(F)cc(C(C)C)c2CC(=O)NS(=O)(=O)c2cccc(CNC(C)=O)c2)ccn1 [Example 133]
17 | ≤ 500 | COc1cc(-c2cc(F)cc(C(C)C)c2CC(=O)NS(=O)(=O)c2ccc(C(C)(C)F)cc2C)ccn1 [Example 134]
18 | ≤ 5000 | COc1cc(-c2cc(F)cc(C(C)C)c2CC(=O)NS(=O)(=O)c2ccc(Cl)c(F)c2)ccn1 [Example 135]
19 | ≤ 1000 | COc1cc(-c2cc(F)cc(C(C)C)c2CC(=O)NS(=O)(=O)c2ccc(Cl)cc2C)ccn1 [Example 136]
20 | ≤ 10000 | COc1cc(-c2cc(F)cc(C(C)C)c2CC(=O)NS(=O)(=O)c2ccc(C(C)(C)O)cn2)ccn1 [Example 137]
21 | ≤ 10000 | COc1cc(-c2cc(F)cc(C(C)C)c2CC(=O)NS(=O)(=O)c2nnc(NC(C)=O)s2)ccn1 [Example 138]
22 | ≤ 500 | COc1cc(-c2cc(F)cc(C(C)C)c2CC(=O)NS(=O)(=O)c2cc(F)c(Br)cc2C)ccn1 [Example 139]
23 | ≤ 5000 | COc1cc(-c2cc(F)cc(C(C)C)c2CC(=O)NS(=O)(=O)c2ccc(Br)cc2C(F)(F)F)ccn1 [Example 140]

Row | IC50 [nM] | Compound
24 | ≤ 1000 | COc1cc(-c2cc(F)cc(C(C)C)c2CC(=O)NS(=O)(=O)c2ccc(Cl)c(C(F)(F)F)c2)ccn1 [Example 141]
25 | ≤ 1000 | CC(C)c1cc(F)cc(-c2cccnc2)c1CC(=O)NS(=O)(=O)c1cnc(C(C)(C)O)s1 [Example 142]
26 | ≤ 1000 | CC(C)c1cc(F)cc(-c2cccnc2)c1CC(=O)NS(=O)(=O)c1ncc(C(C)(C)O)s1 [Example 143]
27 | ≤ 500 | COc1cc(-c2cc(F)cc(C(C)C)c2CC(=O)NS(=O)(=O)c2cc(C(C)(C)OC)cs2)ccn1 [Example 144]
28 | ≤ 500 | COc1ccc(-c2cc(F)cc(C(C)C)c2CC(=O)NS(=O)(=O)c2cc(C(C)(C)O)cs2)cn1 [Example 145]
29 | ≤ 10000 | COc1cc(-c2cc(F)cc(C(C)C)c2CC(=O)NS(=O)(=O)c2c(C)cc(N(C)C)cc2C)ccn1 [Example 146]
30 | ≤ 5000 | COc1cc(-c2c(CC(=O)NS(=O)(=O)c3cc(C(C)(C)O)cs3)c(C(C)C)nn2C)ccn1 [Example 147]
31 | ≤ 5000 | COc1cncc(-c2cc(F)cc(C(C)C)c2CC(=O)NS(=O)(=O)c2cc(C(C)(C)O)cs2)c1 [Example 148]
32 | ≤ 500 | COc1cc(-c2cc(F)cc(C(C)C)c2CC(=O)NS(=O)(=O)c2cc(C(C)(C)O)c(F)cc2F)ccn1 [Example 149]
33 | ≤ 500 | C=C(C)c1csc(S(=O)(=O)NC(=O)Cc2c(-c3ccnc(OC)c3)cc(F)cc2C(C)C)c1 [Example 150]
34 | ≤ 500 | COc1cc(-c2cc(F)cc(C(C)C)c2CC(=O)NS(=O)(=O)c2ccc(C3CC3)cc2C)ccn1 [Example 151]
35 | ≤ 5000 | COc1cc(-c2cc(F)cc(C(C)C)c2CC(=O)NS(=O)(=O)c2c(C)nn(C(C)C)c2C)ccn1 [Example 152]
36 | ≤ 5000 | COc1cc(-c2cc(F)cc(C(C)C)c2CC(=O)NS(=O)(=O)c2cc(N(C)C)ccc2C)ccn1 [Example 153]
37 | ≤ 500 | C=C(C)c1csc(S(=O)(=O)NC(=O)Cc2c(C(C)C)nn(C)c2-c2ccnc(OC)c2)c1 [Example 154]
38 | ≤ 5000 | CNc1cc(C)c(S(=O)(=O)NC(=O)Cc2c(-c3ccnc(OC)c3)cc(F)cc2C(C)C)cc1C [Example 155]
39 | ≤ 500 | COc1cc(-c2cc(F)cc(C(C)C)c2CC(=O)NS(=O)(=O)c2cc(C(C)C)c(F)cc2F)ccn1 [Example 156]
40 | ≤ 500 | COc1cc(-c2cc(F)cc(C(C)C)c2CC(=O)NS(=O)(=O)c2ccc(C(C)C)cc2C)ccn1 [Example 157]
41 | ≤ 5000 | CC(C)c1cc(F)cc(-c2ccnc(O)c2)c1CC(=O)NS(=O)(=O)c1cc(C(C)(C)O)cs1 [Example 158]
42 | ≤ 500 | COc1cc(-c2cc(F)cc(C(C)C)c2CC(=O)NS(=O)(=O)c2cc(C(C)(C)O)c(C)s2)ccn1 [Example 159]
43 | ≤ 5000 | COc1cc(-c2cc(F)cc(C(C)C)c2CC(=O)NS(=O)(=O)c2cc(C(C)(C)O)nn2C)ccn1 [Example 160]
44 | ≤ 5000 | COc1cc(-c2cc(F)cc(C(C)C)c2CC(=O)NS(=O)(=O)c2c(Cl)cc(N(C)C)cc2Cl)ccn1 [Example 161]
45 | ≤ 5000 | COc1cc(-c2cc(F)cc(C(C)C)c2CC(=O)NS(=O)(=O)c2cnc(N(C)C)cc2C)ccn1 [Example 162]
46 | ≤ 10000 | C=C(C)c1csc(S(=O)(=O)NC(=O)Cc2c(-c3ccnc(OC)c3)nn(C)c2C(C)C)c1 [Example 163]

Row | IC50 [nM] | Compound
47 | ≤ 500 | C=C(C)c1ccc(S(=O)(=O)NC(=O)Cc2c(-c3ccnc(OC)c3)cc(F)cc2C(C)C)c(C)c1 [Example 164]
48 | ≤ 500 | C=C(C)c1cc(S(=O)(=O)NC(=O)Cc2c(-c3ccnc(OC)c3)cc(F)cc2C(C)C)c(F)cc1F [Example 165]
49 | ≤ 500 | COc1cc(-c2cc(F)cc(C(C)C)c2CC(=O)NS(=O)(=O)c2cc(Br)c(F)cc2F)ccn1 [Example 166]
50 | ≤ 5000 | COc1cc(-c2cc(F)cc(C(C)C)c2CC(=O)NS(=O)(=O)c2cc(C(C)(C)O)ccc2C)ccn1 [Example 167]
51 | ≤ 5000 | COc1cc(-c2cc(F)cc(C(C)C)c2CC(=O)NS(=O)(=O)c2c(C)nn(CC(F)(F)F)c2C)ccn1 [Example 168]
52 | ≤ 5000 | COc1cc(-c2cc(F)cc(C(C)C)c2CC(=O)NS(=O)(=O)c2cn(CC(F)F)nc2C)ccn1 [Example 169]
53 | ≤ 500 | COc1cc(-c2cc(F)cc(C(C)C)c2CC(=O)NS(=O)(=O)c2cc(C(C)(C)O)ccn2)ccn1 [Example 170]
54 | ≤ 5000 | COc1cc(-c2cc(F)cc(C(C)C)c2CC(=O)NS(=O)(=O)c2ccc(C(C)(C)O)nc2)ccn1 [Example 171]
55 | ≤ 5000 | COc1cc(-c2cc(F)cc(C(C)C)c2CC(=O)NS(=O)(=O)c2c(C)nn(CC(C)C)c2C)ccn1 [Example 172]
56 | ≤ 500 | COc1cc(-c2cc(F)cc(C(C)C)c2CC(=O)NS(=O)(=O)c2cn(C(C)C)nc2C)ccn1 [Example 173]
57 | ≤ 500 | COc1cc(-c2cc(F)cc(C(C)C)c2CC(=O)NS(=O)(=O)c2cc(C(=O)N(C)C)c(C)s2)ccn1 [Example 174]
58 | ≤ 5000 | COc1cc(-c2cc(F)cc(C(C)C)c2CC(=O)NS(=O)(=O)c2c(C)nn(CC(F)F)c2C)ccn1 [Example 175]
59 | ≤ 500 | COC(=O)c1cc(S(=O)(=O)NC(=O)Cc2c(-c3ccnc(OC)c3)cc(F)cc2C(C)C)sc1C [Example 176]
60 | ≤ 5000 | COc1cc(-c2cc(F)cc(C(C)C)c2CC(=O)NS(=O)(=O)c2ccc(CCN(C)C)cc2)ccn1 [Example 177]
61 | ≤ 1000 | COc1cc(-c2cc(F)cc(C(C)C)c2CC(=O)NS(=O)(=O)c2cc(Br)c(Cl)cc2C)ccn1 [Example 178]
62 | ≤ 500 | CCC(C)(O)c1ccc(S(=O)(=O)NC(=O)Cc2c(-c3ccnc(OC)c3)cc(F)cc2C(C)C)cc1F (stereo not drawn) [Example 179]
63 | ≤ 5000 | COc1cc(-c2cc(F)cc(C(C)C)c2CC(=O)NS(=O)(=O)c2cccc(CN(C)C)c2)ccn1 [Example 180]
64 | ≤ 500 | COc1cc(-c2cc(F)cc(C(C)C)c2CC(=O)NS(=O)(=O)c2ccnc(C(C)(C)O)c2)ccn1 [Example 181]
65 | ≤ 10000 | CNC(=O)c1ccc(S(=O)(=O)NC(=O)Cc2c(-c3ccnc(OC)c3)cc(F)cc2C(C)C)c(C)c1 [Example 182]
66 | ≤ 1000 | COc1cc(-c2cc(F)cc(C(C)C)c2CC(=O)NS(=O)(=O)c2cc(Br)cs2)ccn1 [Example 183]
67 | ≤ 1000 | COc1cc(-c2cc(F)cc(C(C)C)c2CC(=O)NS(=O)(=O)c2ccc(-c3cnco3)cc2)ccn1 [Example 184]
68 | ≤ 500 | COc1cc(-c2cc(F)cc(C(C)C)c2CC(=O)NS(=O)(=O)c2ccc(C(C)C)cn2)ccn1 [Example 185]
69 | ≤ 500 | Cc1cc(C(C)(C)O)ccc1S(=O)(=O)NC(=O)Cc1c(-c2ccncc2)cc(F)cc1C(C)C [Example 186]
